According to the NIST ThermoML archive (doi:10.1021/acs.jced.8b00554):

Conditions: Liquid, Vibrating tube method

CCCCCCCCC [nonane]
Conditions	mass density [kg/m3]
313.15 K, 100 kPa	701.49
313.15 K, 1050 kPa	702.34
313.15 K, 2030 kPa	703.25
313.15 K, 3030 kPa	704.17
313.15 K, 4040 kPa	705.07
313.15 K, 5050 kPa	705.96
313.15 K, 5980 kPa	706.78
313.15 K, 7050 kPa	707.7
313.15 K, 8060 kPa	708.56
313.15 K, 9060 kPa	709.4
313.15 K, 10070 kPa	710.23
313.15 K, 11050 kPa	710.92
313.15 K, 12030 kPa	711.71
313.15 K, 13030 kPa	712.51
313.15 K, 14040 kPa	713.3
313.15 K, 15050 kPa	714.09
313.15 K, 15980 kPa	714.8
313.15 K, 17050 kPa	715.61
313.15 K, 18060 kPa	716.36
313.15 K, 19060 kPa	717.1
313.15 K, 20070 kPa	717.83
323.15 K, 100 kPa	693.34
323.15 K, 1030 kPa	694.03
323.15 K, 2040 kPa	695.02
323.15 K, 3030 kPa	695.98
323.15 K, 4040 kPa	696.94
323.15 K, 5040 kPa	697.88
323.15 K, 6040 kPa	698.81
323.15 K, 7050 kPa	699.74
323.15 K, 8060 kPa	700.65
323.15 K, 9060 kPa	701.55
323.15 K, 10060 kPa	702.43
323.15 K, 11030 kPa	703.16
323.15 K, 12040 kPa	704.02
323.15 K, 13030 kPa	704.87
323.15 K, 14040 kPa	705.71
323.15 K, 15040 kPa	706.54
323.15 K, 16040 kPa	707.35
323.15 K, 17050 kPa	708.16
323.15 K, 18060 kPa	708.96
323.15 K, 19060 kPa	709.74
323.15 K, 20060 kPa	710.52
333.15 K, 100 kPa	685.03
333.15 K, 1030 kPa	685.98
333.15 K, 2020 kPa	687
333.15 K, 3020 kPa	688.03
333.15 K, 4020 kPa	689.05
333.15 K, 5030 kPa	690.05
333.15 K, 6030 kPa	691.03
333.15 K, 7030 kPa	692
333.15 K, 8040 kPa	692.97
333.15 K, 9040 kPa	693.91
333.15 K, 10050 kPa	694.85
333.15 K, 11030 kPa	695.64
333.15 K, 12020 kPa	696.54
333.15 K, 13020 kPa	697.44
333.15 K, 14020 kPa	698.32
333.15 K, 15030 kPa	699.2
333.15 K, 16030 kPa	700.06
333.15 K, 17030 kPa	700.91
333.15 K, 18040 kPa	701.76
333.15 K, 19040 kPa	702.59
333.15 K, 20050 kPa	703.42
343.15 K, 100 kPa	677.18
343.15 K, 1000 kPa	678.15
343.15 K, 2010 kPa	679.25
343.15 K, 3010 kPa	680.33
343.15 K, 4020 kPa	681.41
343.15 K, 5030 kPa	682.46
343.15 K, 6030 kPa	683.5
343.15 K, 7040 kPa	684.52
343.15 K, 8040 kPa	685.53
343.15 K, 9050 kPa	686.53
343.15 K, 10050 kPa	687.51
343.15 K, 11000 kPa	688.33
343.15 K, 12010 kPa	689.29
343.15 K, 13010 kPa	690.24
343.15 K, 14020 kPa	691.18
343.15 K, 15030 kPa	692.1
343.15 K, 16030 kPa	693.01
343.15 K, 17040 kPa	693.91
343.15 K, 18040 kPa	694.8
343.15 K, 19050 kPa	695.68
343.15 K, 20050 kPa	696.54
353.15 K, 100 kPa	669.55
353.15 K, 1000 kPa	670.57
353.15 K, 2000 kPa	671.72
353.15 K, 3010 kPa	672.85
353.15 K, 4010 kPa	673.98
353.15 K, 5020 kPa	675.08
353.15 K, 6020 kPa	676.17
353.15 K, 7020 kPa	677.25
353.15 K, 8030 kPa	678.31
353.15 K, 9030 kPa	679.35
353.15 K, 10040 kPa	680.39
353.15 K, 11000 kPa	681.26
353.15 K, 12000 kPa	682.26
353.15 K, 13010 kPa	683.26
353.15 K, 14010 kPa	684.23
353.15 K, 15020 kPa	685.21
353.15 K, 16020 kPa	686.16
353.15 K, 17020 kPa	687.1
353.15 K, 18030 kPa	688.03
353.15 K, 19030 kPa	688.95
353.15 K, 20040 kPa	689.86
363.15 K, 100 kPa	662.05
363.15 K, 990 kPa	663.2
363.15 K, 2000 kPa	664.41
363.15 K, 3010 kPa	665.6
363.15 K, 4010 kPa	666.77
363.15 K, 5020 kPa	667.93
363.15 K, 6020 kPa	669.07
363.15 K, 7030 kPa	670.19
363.15 K, 8030 kPa	671.3
363.15 K, 9040 kPa	672.4
363.15 K, 10040 kPa	673.47
363.15 K, 10990 kPa	674.38
363.15 K, 12000 kPa	675.44
363.15 K, 13010 kPa	676.48
363.15 K, 14010 kPa	677.5
363.15 K, 15020 kPa	678.52
363.15 K, 16020 kPa	679.51
363.15 K, 17030 kPa	680.5
363.15 K, 18030 kPa	681.47
363.15 K, 19040 kPa	682.43
363.15 K, 20040 kPa	683.38

CCCCCCCC [octane]
Conditions	mass density [kg/m3]
313.15 K, 100 kPa	686.05
313.15 K, 1030 kPa	687.19
313.15 K, 1950 kPa	688.13
313.15 K, 2950 kPa	689.08
313.15 K, 3960 kPa	690
313.15 K, 4960 kPa	690.87
313.15 K, 5970 kPa	691.78
313.15 K, 6970 kPa	692.65
313.15 K, 7980 kPa	693.54
313.15 K, 8980 kPa	694.38
313.15 K, 9990 kPa	695.26
313.15 K, 11030 kPa	696.11
313.15 K, 11950 kPa	696.94
313.15 K, 12950 kPa	697.75
313.15 K, 13960 kPa	698.56
313.15 K, 14960 kPa	699.37
313.15 K, 15970 kPa	700.18
313.15 K, 16970 kPa	700.99
313.15 K, 17980 kPa	701.77
313.15 K, 18980 kPa	702.53
313.15 K, 19990 kPa	703.31
323.15 K, 100 kPa	677.56
323.15 K, 950 kPa	678.99
323.15 K, 1960 kPa	680.02
323.15 K, 2970 kPa	681.01
323.15 K, 3980 kPa	681.99
323.15 K, 4980 kPa	682.97
323.15 K, 5980 kPa	683.91
323.15 K, 6990 kPa	684.86
323.15 K, 7990 kPa	685.78
323.15 K, 9000 kPa	686.69
323.15 K, 10090 kPa	687.59
323.15 K, 10950 kPa	688.51
323.15 K, 11960 kPa	689.4
323.15 K, 12970 kPa	690.29
323.15 K, 13980 kPa	691.16
323.15 K, 14980 kPa	691.98
323.15 K, 15980 kPa	692.86
323.15 K, 16990 kPa	693.68
323.15 K, 17990 kPa	694.53
323.15 K, 19000 kPa	695.33
323.15 K, 20090 kPa	696.18
333.15 K, 100 kPa	669.13
333.15 K, 1050 kPa	670.67
333.15 K, 1940 kPa	671.75
333.15 K, 2950 kPa	672.81
333.15 K, 3950 kPa	673.87
333.15 K, 4960 kPa	674.91
333.15 K, 5960 kPa	675.95
333.15 K, 6960 kPa	676.93
333.15 K, 7990 kPa	677.93
333.15 K, 8990 kPa	678.93
333.15 K, 10000 kPa	679.89
333.15 K, 11050 kPa	680.86
333.15 K, 11940 kPa	681.81
333.15 K, 12950 kPa	682.71
333.15 K, 13950 kPa	683.67
333.15 K, 14960 kPa	684.58
333.15 K, 15960 kPa	685.48
333.15 K, 16960 kPa	686.34
333.15 K, 17990 kPa	687.26
333.15 K, 18990 kPa	688.1
333.15 K, 20000 kPa	688.97
343.15 K, 100 kPa	661.02
343.15 K, 960 kPa	662.23
343.15 K, 1970 kPa	663.39
343.15 K, 2980 kPa	664.55
343.15 K, 3980 kPa	665.65
343.15 K, 4990 kPa	666.79
343.15 K, 5990 kPa	667.86
343.15 K, 7000 kPa	668.94
343.15 K, 8010 kPa	670.02
343.15 K, 9010 kPa	671.05
343.15 K, 10100 kPa	672.12
343.15 K, 10960 kPa	673.13
343.15 K, 11970 kPa	674.15
343.15 K, 12980 kPa	675.12
343.15 K, 13980 kPa	676.13
343.15 K, 14990 kPa	677.1
343.15 K, 15990 kPa	678.03
343.15 K, 17000 kPa	678.97
343.15 K, 18010 kPa	679.93
343.15 K, 19010 kPa	680.86
343.15 K, 20100 kPa	681.78
353.15 K, 100 kPa	652.22
353.15 K, 1060 kPa	653.65
353.15 K, 1940 kPa	654.91
353.15 K, 2950 kPa	656.12
353.15 K, 3960 kPa	657.35
353.15 K, 4960 kPa	658.54
353.15 K, 5960 kPa	659.71
353.15 K, 6970 kPa	660.9
353.15 K, 7980 kPa	662.03
353.15 K, 8980 kPa	663.17
353.15 K, 9980 kPa	664.24
353.15 K, 11060 kPa	665.33
353.15 K, 11940 kPa	666.44
353.15 K, 12950 kPa	667.49
353.15 K, 13960 kPa	668.52
353.15 K, 14960 kPa	669.56
353.15 K, 15960 kPa	670.6
353.15 K, 16970 kPa	671.6
353.15 K, 17980 kPa	672.57
353.15 K, 18980 kPa	673.56
353.15 K, 19980 kPa	674.52
363.15 K, 100 kPa	643.71
363.15 K, 950 kPa	644.91
363.15 K, 1960 kPa	646.3
363.15 K, 2970 kPa	647.63
363.15 K, 3970 kPa	648.92
363.15 K, 4980 kPa	650.23
363.15 K, 5980 kPa	651.49
363.15 K, 6990 kPa	652.73
363.15 K, 7990 kPa	653.97
363.15 K, 8990 kPa	655.15
363.15 K, 10090 kPa	656.34
363.15 K, 10950 kPa	657.54
363.15 K, 11960 kPa	658.66
363.15 K, 12970 kPa	659.79
363.15 K, 13970 kPa	660.94
363.15 K, 14980 kPa	662.01
363.15 K, 15980 kPa	663.09
363.15 K, 16990 kPa	664.19
363.15 K, 17990 kPa	665.21
363.15 K, 18990 kPa	666.28
363.15 K, 20090 kPa	667.28
